This is an account of results in the supplement of paper PMC10307832.

What all share (assay): relative viability (nuclei count vs DMSO), 5 days (fraction); higher = more cells survive
Compound in test [1]: CC1=CC(=NN1)NC2=CC(=NC(=N2)/C=C/C3=CC=CC=C3)N4CCN(CC4)C + CCNC(=O)c1noc(-c2cc(C(C)C)c(O)cc2O)c1-c1ccc(CN2CCOCC2)cc1 [Luminespib] (partner 0.01 µM)
In short, it runs like this: (§1)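 Lung cancer cell lines in 1536-well plates were dosed by pin tool the day after seeding, either with one drug alone or with a fixed anchor-drug dose plus five library-drug doses (not always all listed) in √10 steps. After 5 days, cells were fixed and their nuclei stained in one step (final 0.05% Triton X-100, 1% formaldehyde, 1 ug/ml Hoechst), then counted on 4× images. Relative viability is the nuclei count in treated wells divided by that in vehicle wells. Values are medians of duplicate plates.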

Compound in the test “Obatoclax + AZD7762”: COC1=CC(c2cc3ccccc3[nH]2)=N/C1=C\c1[nH]c(C)cc1C [Obatoclax] + NC(=O)Nc1cc(-c2cccc(F)c2)sc1C(=O)N[C@H]1CCCNC1 [AZD7762] (partner 0.2 µM)
In short, it runs like this:
as §1

Compound in the test “Obatoclax + Vorinostat”: COC1=CC(c2cc3ccccc3[nH]2)=N/C1=C\c1[nH]c(C)cc1C [Obatoclax] + O=C(CCCCCCC(=O)Nc1ccccc1)NO [Vorinostat] (partner 1 µM)
The essentials: as §1

Compound in the test “Bortezomib + Tozasertib”: CC(C)C[C@H](NC(=O)[C@H](Cc1ccccc1)NC(=O)c1cnccn1)B(O)O [Bortezomib] + Cc1cc(Nc2cc(N3CCN(C)CC3)nc(Sc3ccc(NC(=O)C4CC4)cc3)n2)n[nH]1 [Tozasertib] (partner 0.1 µM)
In short, it runs like this:
as §1

NCI-H650: the relative viability in test [1] (first compound 0.253 µM) came out at 0.915; in test [1] (first compound 0.8 µM), 0.813; in test [1] (first compound 2.53 µM), 0.411; in test [1] (first compound 8 µM), 0.111; in the test with Obatoclax + AZD7762 (first compound 0.01 µM), 0.998; with Obatoclax + AZD7762 (first compound 0.03162 µM) it was 0.925. The relative viability with Obatoclax + AZD7762 (first compound 0.3162 µM) was 0.513; in the test with Obatoclax + AZD7762 (first compound 1 µM), 0.324; with Obatoclax + Vorinostat (first compound 0.01 µM) it was 0.439; with Obatoclax + Vorinostat (first compound 0.03162 µM) it was 0.444; in the test with Obatoclax + Vorinostat (first compound 0.3162 µM) it was 0.418; with Obatoclax + Vorinostat (first compound 1 µM) it was 0.384. Further, the relative viability with Bortezomib + Tozasertib (first compound 0.000632 µM) was 0.697; in the test with Bortezomib + Tozasertib (first compound 0.002 µM), 0.637; with Bortezomib + Tozasertib (first compound 0.006325 µM) it was 0.286; with Bortezomib + Tozasertib (first compound 0.02 µM), 0.133.
